One test has as its system A549. In words: Cytotoxicity against human A549 cells by SRB assay. The test is classed as functional. To be noted: read-out: ED50 (the source's name). On the technique in general: The SRB assay estimates cell density from bound dye.
A further test relates to SK-OV-3. In words: Cytotoxicity against human SKOV3 cells by SRB assay. The format is functional. To be noted: read-out: ED50 (the source's name).
A further test concerns SK-MEL-2. In words: Cytotoxicity against human SK-MEL-2 cells by SRB assay. The test is classed as functional. To be noted: read-out: ED50 (the source's name).
A further test deals with XF498. In words: Cytotoxicity against human XF498 cells by SRB assay. The format is functional. The settings on record: read-out: ED50 (the source's name).
The next test deals with HCT-15. In words: Cytotoxicity against human HCT15 cells by SRB assay. The format is functional. To be noted: read-out: ED50 (the source's name).
Test [1] deals with Trichophyton mentagrophytes. The test can be described thus: Antifungal activity against Trichophyton mentagrophytes by agar diffusion assay. The test is classed as functional, organism-based. For orientation: A growth-free zone around the sample is the usual read-out of agar diffusion tests.

Values after ≈ are worked out from the molar mass of the structure shown. Active and inactive are the calls of the source. No cut-off for these calls is given here.

We go through four compounds from ChEMBL document CHEMBL1158237, “Jineol, a Cytotoxic Alkaloid from the Centipede Scolopendra subspinipes” (1996).

On to `COc1cccc2c1C(=O)c1c(O)c3c(c(O)c1C2=O)C[C@@](O)(C(=O)CO)C[C@@H]3O[C@H]1C[C@H](N)[C@H](O)[C@H](C)O1` [DOXORUBICIN], for which the EC50 is 0.05 µg/mL (≈ 0.092 µM) in the test with A549; 0.11 µg/mL (≈ 0.202 µM) in the test with SK-OV-3; 0.05 µg/mL (≈ 0.092 µM) in the test with SK-MEL-2; 0.1 µg/mL (≈ 0.184 µM) with XF498; 1.8 µg/mL (≈ 3.31 µM) with HCT-15.

For `Oc1cnc2c(O)cccc2c1` [JINEOL], the EC50 came out at 5.8 µg/mL (≈ 36 µM) with A549; 4.5 µg/mL (≈ 27.9 µM) in the test with SK-OV-3; 5.6 µg/mL (≈ 34.7 µM) in the test on SK-MEL-2; 10 µg/mL (≈ 62.1 µM) in the test on XF498; 1.9 µg/mL (≈ 11.8 µM) with HCT-15. Further, in test [1], the outcome was Active.

As to `CC(=O)Oc1cnc2c(OC(C)=O)cccc2c1` [JINEOL ACETATE], the EC50 in the test on A549 came out at 8 µg/mL; in the test on SK-OV-3, 14 µg/mL; in the test with SK-MEL-2 it was 11 µg/mL; with XF498, 12 µg/mL; with HCT-15, 8 µg/mL.

Take `COc1cnc2c(OC)cccc2c1` [JINEOL METHYL ETHER]: the EC50 turned out to be 38 µg/mL (≈ 201 µM) with A549; 32 µg/mL (≈ 169 µM) in the test on SK-OV-3; 21 µg/mL (≈ 111 µM) in the test on SK-MEL-2; 29 µg/mL (≈ 153 µM) in the test with XF498; 42 µg/mL (≈ 222 µM) in the test with HCT-15.
